Source: patent publication US6153604A, “Therapeutic substituted guanidines” (Cambridge NeuroScience, Inc., priority 1995, dated 2000)
Structures can show the parent of a compound that is named as a salt.

What was measured:
[1] = tested on: NMDA-induced excitotoxic damage to the central nervous system; assay: In vivo assay for protection against NMDA-induced excitotoxic damage to the central nervous system; parameters: species or system rat (Day 7 neonatal); settings: Rattus norvegicus, ip, 120 h, intraperitoneal; for ED80: 15 minutes after intrastriatal NMDA, neonatal rats, read-out: ED80 (dose that provides 80% of the maximum protection)
Procedure: In vivo assay for protection against NMDA-induced excitotoxic damage to the central nervous system.
The in vivo potency of compounds of the present invention is exemplified by data summarized in Table II and obtained pursuant to the following protocol. Day 7 neonatal rats were anesthetized with metophane inhalation anesthetic for 4-6 minutes, inserted into a stereotaxic apparatus and injected intrastriatally with 0.5 μl of 50 mM NMDA (N-methyl-D-aspartate). 15 minutes after the NMDA injection, the rat pups were injected intraperitoneally with 10, 30 or 60 μmol/kg of the NMDA antagonist of the structure specified in Table II Animals were returned to their mother and watched for signs of distress (e.g., respiratory depression). After five days, the animals were anesthetized with CO2 and then decapitated; their brains were removed and weighed to determine the degree of neuroprotection. Because NMDA injection results in a retardation of brain growth (including necrosis), effects can be measured gravimetrically in terms of the weights of injected and non-injected hemispheres. Two groups of rat pups were used at each of three doses of a compound to generate a neuroprotection dose-response curve. The chemical structure of each of the tested compounds is specified below with the general formula of the compounds shown at the top of Table II with particular substituent groups specified within that Table. Table II discloses 1) the ED80 for each tested compound, i.e., the dose of a compound that provides 80% of the maximum protection against damage to the central nervous system; and 2) the percent (%) maximum protection against damage to the central nervous system provided by the indicated dose expressed as μmol per kilogram bodyweight of the test subject.

[2] = tested on: rat model of Korsakoff's disease; settings: pretreatment of animals; cited from earlier work

Compound | inhibition in vivo at 60 µmol/kg ([1]; dose 60 μmol/kg, read-out: % maximum protection per dose) | ED80 [1] | inhibition in vivo at 30 µmol/kg ([1]; dose 30 μmol/kg, read-out: % maximum protection per dose) | extent of cell loss, hemorrhages and amino acid changes [2]
Cc1ccc(Cl)c(NC(=N)Nc2cccc3ccccc23)c1 [Cmpd. No. 10 (Table II), N-(1-Naphthyl)-N'(2-chloro-5-methylphenyl)guanidine hydrochloride] | 96.4% | 45.8 µmol/kg | – | –
CCc1ccc(Cl)c(NC(=N)Nc2cccc3cccnc23)c1 [Cmpd. No. 11 (Table II), N-(8-Quinolinyl)-N'-(2-chloro-5-ethylphenyl)guanidine hydrochloride] | – | 14.2 µmol/kg | 94.5% | –
C[C@]12N[C@H](Cc3ccccc31)c1ccccc12 [MK-801, (+)-5-methyl-10,11-dihydro-5H-dibenzo[a,d]cycloheptene-5,10-imine] | – | – | – | markedly attenuates the extent of cell loss, hemorrhages and amino acid changes
